Source: patent publication US20260345593A1, “ORAL FORMULATION OF N-PYRIDINYL ACETAMIDE DERIVATIVE FOR TREATING INTERSTITIAL LUNG DISEASE” (AstraZeneca AB, priority 2022, published 2026)
Read-outs that look alike come from different tables or passages of the source.

Tests used:
[1] = tested on: mouse bleomycin in vivo pulmonary fibrosis; conditions: mouse bleomycin in vivo study (Bunyard 2019); cited from earlier work
[2] = predicted human absorption, clearance and bioavailability
Procedure: Based on in vitro data, the predicted human oral bioavailability is 70%. The observed oral bioavailability in several animal species is in the range 40% to 60%.
Therefore, a conservative estimate is that Cmax following an IV infusion over 20 minutes is less than 2-fold higher compared to an oral dose, after correcting for F.

[3] = Example 1, first clinical study: pharmacokinetics in healthy subjects; assay type: in vivo, human; conditions: for half-life / Tmax: in vivo; for half-life: read-out: geometric mean terminal half-life
Procedure: This study is in two parts—part 1 involves testing a single ascending dose, whilst part 2 involves testing multiple ascending doses.
Part 1 comprises a Screening Period of a maximum of 6 weeks. This is followed by a Treatment Period during which subjects are resident at the Clinical Unit from 1 day before investigational medicinal product (IMP) administration (Day −1) until at least 72 hours after IMP administration (Day 4). Subjects receive a single oral dose of AZD5055 or placebo on Day 1. This is followed by a Follow-up Visit within 6±1 day after the IMP dose.
Part 2 comprises a Screening Period of a maximum of 6 weeks. This is followed by a treatment period during which subjects are resident at the Clinical Unit from 1 day before IMP administration (Day −1) until at least 72 hours after the last dose given on Day 16 (Day 19). Subjects are dosed for a total of 15 days and receive a single once daily morning dose of AZD5055 or placebo on Day 1 and on Days 3 through Day 16, with no dosing on Day 2. This is followed up a Follow-up Visit within 6±1 day after the IMP dose, and an additional Follow-up Visit within 29±2 days after the last IMP dose.
For cohorts with QD dosing regimens, the Screening Period is followed by a Treatment Period during which subjects are resident at the Clinical Unit from 1 day before IMP administration (Day −1) until at least 72 hours after the last dose given on Day 16 (Day 19). Subjects are dosed for a total of 15 days, receiving a single QD morning dose of AZD5055 or placebo on Day 1 and on Days 3 through Day 16.
For cohorts with BID dosing regimens, the Screening Period is followed by a Treatment Period during which subjects are resident at the Clinical Unit from 1 day before IMP administration (Day −1) until at least 72 hours after the last dose given on Day 16 (Day 19).
Subjects are dosed for a total of 15 days, receiving a single morning dose of AZD5055 or placebo on Day 1 and Day 16, and repeated BID dosing on Day 3 through Day 15, 12 hours (±30 minutes) apart.
The study was conducted in healthy male and healthy female subjects of non-childbearing potential with suitable veins for cannulation or repeated venipuncture. […] Also, the subjects were aged 18 to 55 years inclusive for men and women in Part 1 and only men in Part 2. For female subjects in Part 2, the age range was 18 to 49 years inclusive.
In Part 1 of the study, 3 dose levels of AZD5055 were investigated in 3 cohorts. Each cohort included 8 subjects. Within each cohort, 6 subjects were randomized to receive AZD5055, and 2 subjects were randomized to receive placebo. In Part 2 of the study, 3 dose levels of AZD5055 were investigated in 3 cohorts. In each cohort, 9 subjects were randomized to receive AZD5055, and 3 subjects were randomized to receive placebo.
Primary PK parameters: Cmax, AUCinf, and AUClast; secondary PK parameters: including but not limited to tmax, AUC (0-12) or AUC (0-24) (the one not being the primary parameter), t1/2λz, MRTinf, CL/F, Vz/F, Rac, TCP, Ae(t1-t2), fe (t1-t2), and CLR.
No formal statistical hypothesis testing was performed. The analyses of safety, tolerability, PK, and PD data was summarized descriptively by treatment/dose/study day separately using appropriate descriptive statistics including tables, listings, and graphs, as appropriate. Preliminary dose proportionality of AZD5055 after single dose (Day 1) in Part 1 and 2 and multiple dose (Day 16) in Part 2 was assessed graphically and was analyzed using the power model approach with the logarithm of PK parameters (AUC and Cmax on Day 1) and (AUC(0-τ) and Cmax on Day 16) as the dependent variable and the logarithm of the dose as the independent variable. For data collected in Part 2, the time dependency of the PK was evaluated by comparing AUC(0-τ) (Day 16) with AUC (Day 1) and accumulation was evaluated by comparing AUC(0-τ) (Day 16) with AUC(0-τ) (Day 1) and Cmax (Day 16) with Cmax (Day 1). […]

[4] = excipient compatibility study; assay type: physicochemical
Excerpt: In some embodiments, the diluent is a sugar or sugar-containing, except mannitol. For example, the diluent may be lactose, dextrin, glucose, sucrose, sorbitol. In some embodiments, the diluent is microcrystalline cellulose.
In some embodiments, the lubricant/glidant is glyceryl behenate.

[5] = tested on: bleomycin-mediated fibrosis in the lungs of rats; conditions: cited from earlier work

SMILES: Cc1cc(-c2nccc3c2ccn3CC(=O)Nc2ccc(-c3cnccn3)cn2)ccn1 [AZD5055, 2-[4-(2-methyl-4-pyridyl)pyrrolo[3,2-c]pyridin-1-yl]-N-(5-pyrazin-2-yl-2-pyridyl)acetamide]
- pulmonary fibrosis [1]: reduced pulmonary fibrosis
- Cmax after 20-minute IV infusion relative to oral dose ([2]; conservative estimate, after correcting for F): less than 2 fold
- dose absorbed within 20 minutes ([2]; estimated from tmax of 1 hour, oral): approximately 75%
- dose proportionality of exposure ([3]; 5 to 40 mg, single and multiple dose): increased approximately proportionally
- half-life ([3]; human, po, multiple daily administration): 12.2 to 17.2 h
- Tmax ([3]; human, po, multiple daily doses of 5 to 20 mg, read-out: tmax (medians)): 1 to 1.3 h
- Tmax ([3]; human, po, observed, oral dose, read-out: tmax (time to Cmax)): 1 h
- half-life ([3]; human, po, single administration): 9.7 to 11.4 h
- dose excreted ([3]; human, urine, po, percent of dose administered, read-out: dose recovered unchanged in urine): < 2.3%
- between-subject variability in Cmax ([3]; low): < 25%
- decline of concentrations ([3]; oral): declined in a bi-phasic manner
- renal clearance share of total clearance ([3]; oral): small share of AZD5055 total clearance
- absorption ([3]; oral suspension, single ascending doses of 7 to 40 mg): rapidly absorbed
- accumulation ([3]; repeat daily administration): Little to moderate accumulation
- degradation products with silicon dioxide and magnesium stearate ([4]; glidant and lubricant respectively): additional amounts of degradation products were identified
- compatibility with mannitol ([4]; mannitol as diluent): not compatible
- degradation products with mannitol ([4]; mannitol as diluent): additional amounts of degradation products were identified
- compatibility with silicon dioxide and magnesium stearate ([4]; silicon dioxide as glidant, magnesium stearate as lubricant): not compatible
- pulmonary fibrosis ([5]; rat bleomycin in vivo study (Bunyard 2019)): reduced pulmonary fibrosis
- bleomycin-mediated fibrosis in the lungs ([5]; rats, preliminary studies (Bunyard 2019)): reduces bleomycin-mediated fibrosis in the lungs of rats
